In patent US20070281857A1, “FORMIC ACID AS AN HERBICIDE” (MARRONE ORGANIC INNOVATIONS, priority 2006, published 2007):
Like-named read-outs stand apart in the source and are kept apart here.

Columns and labels:
[1] = tested on: Poa annua (annual bluegrass); conditions: one week, relative to control
Description: (§1) To further test the inhibitory effect of formic acid on germinating seeds, pots with 6-cm diameter were filled with 60 mL of silty clay loam soil passed through a 2-mm sieve, and five (5) seeds of either Taraxacum officinale (dandelion, representing a broadleaved weed) or Poa annua (annual bluegrass, representing a grass weed) were planted on the top. A solid form of the composition containing corn gluten meal granules (1-2 mm diameter) soaked in 0%, 5%, 10% or 20% formic acid solution and dried were placed on the top of the soil at rates 0.1, 0.25, 0.5 and 1.0 g/pot. The pots were kept at optimum water content under growth lights with a 12-h light/dark period at room temperature, and the number of germinated seeds was counted after one week.

[2] = tested on: Taraxacum officinale (dandelion); conditions: one week, relative to control
Description: as §1

[3] = tested on: dicotyledonous radish plants (Raphanus sativas); conditions: foliar spray at all concentrations (1%, 3%, 5%); one day post-treatment
Text: (§2) In order to determine whether formic acid could be used as a foliar herbicide it was applied as a foliar spray to the leaves of dicotyledonous radish plants (Raphanus sativas) and monocotyledonous wheat plants (Triticum aestivum). Solutions were applied to plants using a small handheld sprayer.
(§3) Formic acid and acetic acid solutions at three concentrations (1%, 3%, 5%) were applied and water was used as a check. A barrier was inserted between the rows of plants on either side of the row being treated to avoid drift of sprays into neighboring rows. Plants were evaluated at 24-hour and 72-hour intervals for the number of surviving plants and a percentage was derived from this number in comparison with the number of plants originally present in the row.

[4] = tested on: monocotyledonous wheat plants (Triticum aestivum); conditions: one day post-treatment
Text: as §2, §3

[5] = 5% formic acid in corn gluten meal granules 1-2 mm, 0.1 g/pot
[6] = 5% formic acid in corn gluten meal granules 1-2 mm, 0.25 g/pot
[7] = 5% formic acid in corn gluten meal granules 1-2 mm, 0.5 g/pot
[8] = 5% formic acid in corn gluten meal granules 1-2 mm, 1 g/pot
[9] = 10% formic acid in corn gluten meal granules 1-2 mm, 0.1 g/pot
[10] = 10% formic acid in corn gluten meal granules 1-2 mm, 0.25 g/pot
[11] = 10% formic acid in corn gluten meal granules 1-2 mm, 0.5 g/pot
[12] = 10% formic acid in corn gluten meal granules 1-2 mm, 1 g/pot
[13] = 20% formic acid in corn gluten meal granules 1-2 mm, 0.1 g/pot
[14] = 20% formic acid in corn gluten meal granules 1-2 mm, 0.25 g/pot
[15] = 20% formic acid in corn gluten meal granules 1-2 mm, 0.5 g/pot
[16] = 20% formic acid in corn gluten meal granules 1-2 mm, 1 g/pot
[17] = 20% formic acid in corn gluten meal granules 1-2 mm, 1 g/pot, listed as formic acid

SMILES: O=CO [Formic acid]
- germination rate (%) annual bluegrass [1, 5]: 100%
- germination rate (%) annual bluegrass [1, 6]: 82%
- germination rate (%) annual bluegrass [1, 7]: 82%
- germination rate (%) annual bluegrass [1, 8]: 82%
- germination rate (%) annual bluegrass [1, 9]: 100%
- germination rate (%) annual bluegrass [1, 10]: 100%
- germination rate (%) annual bluegrass [1, 11]: 54%
- germination rate (%) annual bluegrass [1, 12]: 54%
- germination rate (%) annual bluegrass [1, 13]: 100%
- germination rate (%) annual bluegrass [1, 14]: 54%
- germination rate (%) annual bluegrass [1, 15]: 27%
- germination rate (%) annual bluegrass [1, 16]: 0%
- germination rate (%) annual bluegrass [1, 17]: inhibited the germination
- germination rate (%) dandelion [2, 5]: 100%
- germination rate (%) dandelion [2, 6]: 50%
- germination rate (%) dandelion [2, 7]: 0%
- germination rate (%) dandelion [2, 8]: 0%
- germination rate (%) dandelion [2, 9]: 0%
- germination rate (%) dandelion [2, 10]: 0%
- germination rate (%) dandelion [2, 11]: 0%
- germination rate (%) dandelion [2, 12]: 100%
- germination rate (%) dandelion [2, 13]: 0%
- germination rate (%) dandelion [2, 14]: 0%
- germination rate (%) dandelion [2, 15]: 0%
- germination rate (%) dandelion [2, 16]: 0%
- germination rate (%) dandelion [2, 17]: inhibited the germination
- killing of foliage of radish plants [3]: completely killed all the foliage
- wheat foliage killed ([4]; foliar spray 1%): none of the foliage killed
- wheat plants killed ([4]; foliar spray 5%): 10%
